These results are taken from patent US12595230B2, “Substituted 6,7-dihydro-5H-benzo[7]annulene compounds and their derivatives, processes for their preparation and therapeutic uses thereof” (Sanofi, priority 2020, dated 2026).

This assay has as its target T1, ERα (Homo sapiens, UniProt P03372).
T1 construct: host or cells: MCF7
T1 sequence (P03372 1-595): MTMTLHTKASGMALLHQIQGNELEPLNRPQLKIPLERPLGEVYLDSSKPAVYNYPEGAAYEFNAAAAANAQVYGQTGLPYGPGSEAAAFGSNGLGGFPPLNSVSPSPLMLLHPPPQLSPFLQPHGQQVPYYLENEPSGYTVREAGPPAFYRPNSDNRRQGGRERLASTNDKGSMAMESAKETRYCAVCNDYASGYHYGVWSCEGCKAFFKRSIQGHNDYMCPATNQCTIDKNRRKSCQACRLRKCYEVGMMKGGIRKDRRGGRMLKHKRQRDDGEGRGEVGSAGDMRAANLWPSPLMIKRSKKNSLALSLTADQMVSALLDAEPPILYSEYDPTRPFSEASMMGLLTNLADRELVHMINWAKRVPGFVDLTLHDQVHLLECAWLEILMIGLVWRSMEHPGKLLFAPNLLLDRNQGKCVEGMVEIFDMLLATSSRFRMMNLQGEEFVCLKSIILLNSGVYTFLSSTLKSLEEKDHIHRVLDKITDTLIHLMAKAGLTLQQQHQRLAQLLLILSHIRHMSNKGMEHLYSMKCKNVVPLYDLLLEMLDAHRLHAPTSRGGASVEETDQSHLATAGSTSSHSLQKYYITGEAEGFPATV
As to the kind of experiment: Estrogen receptor degradation activity: breast cancer cell ERα in cell western assay (MCF7 cells). The format is cell-based. Conditions: for % Degradation At 0.3 μM: 4 hours, relative to fulvestrant 0.1 μM positive control; for DC50: 4 hours post compound addition, concentration which degrades 50% of the estrogen receptor, read-out: Degradation IC50. Put shortly:
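Compounds were applied to MCF7 cells in stripped-serum, phenol red-free medium for 4 h at final 0.3–0.0000018 μM, with fulvestrant (0.1 μM) as control. Value: IC50 (nM) for 50% ERα degradation.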

Consider `O=C(O)c1ccc2c(c1)CCCC(c1ccc(Cl)cc1Cl)=C2c1ccc(C(O)C2CN(CCCF)C2)cc1` (single isomer, unassigned) [Example 41, 8-(2,4-dichlorophenyl)-9-(4-((1-(3-fluoropropyl)azetidin-3-yl)(hydroxy)methyl)phenyl)-6,7-dihydro-5H-benzo[7]annulene-3-carboxylic acid], for which the “% Degradation At 0.3 μM” value came to 95% and the DC50 came out at 1.6 nM.

`O=C(O)c1ccc2c(c1)CCCC(c1cccc3c1CC3)=C2c1ccc(CC2CN(CCCF)C2)cc1` [Example 53, 8-(bicyclo[4.2.0]octa-1(6),2,4-trien-2-yl)-9-(4-((1-(3-fluoropropyl)azetidin-3-yl)methyl)phenyl)-6,7-dihydro-5H-benzo[7]annulene-3-carboxylic acid]: the “% Degradation At 0.3 μM” value came to 91% and the DC50 was 0.4 nM.

`O=C(O)c1ccc2c(c1)CCCC(c1ccc(F)cc1F)=C2c1ccc(CC2CN(CCC(F)F)C2)cc1` [Example 281, 8-(2,4-difluorophenyl)-9-(4-((1-(3,3-difluoropropyl)azetidin-3-yl)methyl)phenyl)-6,7-dihydro-5H-benzo[7]annulene-3-carboxylic acid]: the “% Degradation At 0.3 μM” value is listed as 84% and the DC50 turned out to be 0.4 nM.

Regarding `O=C(O)c1ccc2c(c1)CCCC(C1CC3(C1)CC(F)(F)C3)=C2c1ccc(CC2CN(CCCF)C2)cc1` [Example 51, 8-(6,6-difluorospiro[3.3]heptan-2-yl)-9-(4-((1-(3-fluoropropyl)azetidin-3-yl)methyl)phenyl)-6,7-dihydro-5H-benzo[7]annulene-3-carboxylic acid], the “% Degradation At 0.3 μM” value is on record as 89% and the DC50 came to 0.7 nM.

For the compound `O=C(O)c1ccc2c(c1)CCCC(C1=CC3(C1)CC(F)(F)C3)=C2c1ccc(CC2CN(CCCF)C2)cc1` [Example 50, 8-(6,6-difluorospiro[3.3]hept-1-en-2-yl)-9-(4-((1-(3-fluoropropyl)azetidin-3-yl)methyl)phenyl)-6,7-dihydro-5H-benzo[7]annulene-3-carboxylic acid], the “% Degradation At 0.3 μM” value is given as 88% and the DC50 came out at 10.5 nM.

In the case of `CC1CCc2cc(C(=O)O)ccc2C(c2ccc(CC3CN(CCCF)C3)cc2)=C1c1ccc(F)cc1` (racemic) [Example 325, 8-(4-fluorophenyl)-9-(4-((1-(3-fluoropropyl)azetidin-3-yl)methyl)phenyl)-7-methyl-6,7-dihydro-5H-benzo[7]annulene-3-carboxylic acid], the “% Degradation At 0.3 μM” value is given as 89% and the DC50 came out at 0.5 nM.

For the compound `O=C(O)c1ccc2c(c1)CCCC(c1cccc(Cl)c1Cl)=C2c1ccc(CC2CN(CCCF)C2)cc1` [Example 19, 8-(2,3-dichlorophenyl)-9-(4-((1-(3-fluoropropyl)azetidin-3-yl)methyl)phenyl)-6,7-dihydro-5H-benzo[7]annulene-3-carboxylic acid], the “% Degradation At 0.3 μM” value came to 91% and the DC50 is 0.3 nM.

For `Cl.O=C(O)c1ccc2c(c1)CCCC(c1ccc(Cl)cc1Cl)=C2c1ccc(C2(C3CN(CCCF)C3)CC2)cc1` [Example 215, 8-(2,4-dichlorophenyl)-9-(4-(1-(1-(3-fluoropropyl)azetidin-3-yl)cyclopropyl)phenyl)-6,7-dihydro-5H-benzo[7]annulene-3-carboxylic acid hydrochloride], the “% Degradation At 0.3 μM” value was found to be 67% and the DC50 is 0.3 nM.

As for `O=C(O)c1ccc2c(c1)CCCC(c1cccc(CO)c1)=C2c1ccc(CC2CN(CCCF)C2)cc1` [Example 320, 9-(4-((1-(3-fluoropropyl)azetidin-3-yl)methyl)phenyl)-8-(3-(hydroxymethyl)phenyl)-6,7-dihydro-5H-benzo[7]annulene-3-carboxylic acid], the “% Degradation At 0.3 μM” value is listed as 80% and the DC50 was 110 nM.
